Legend:
[1] = Measurement of LogD7.4 (n-octanol/PBS shake); assay type: physicochemical; conditions: single determination, n-octanol/PBS pH 7.4; read-out: Log D7.4
Experimental: Appendix 4. Measurement of LogD7.4
Test compounds (~1 mg) were weighed into 2 mL HPLC vials. n- Octanol (0.7 mL), pre-saturated with 10 mM phosphate buffered saline pH7.4 (PBS), was added to each vial followed b y PBS (0. 7 mL), which had been pre-saturat ed with n-octanol. The mixtures were shaken for 90 min and then centrifuged for 10 min at 4,000 rpm. The upper organic l ayer (0.2 m L) and the aqueous la yer (0.5 mL) were removed from each vial and anal yz e d b y LC -MS. Mass spect ral anal ysis was used to confirm peak identity whilst the concentration of compound was assessed by a diode arra y det ecto r. The logD for each compound was calculated b y takin g th e lo g of its concentration ratio between the oct anol and aqueous la ye r s.Given the robustness of the assa y and the fact that the info rmation was us ed onl y for gen eral guid ance, thes e measu rements were based on singlicate det erminations.

[2] = target: T1, Factor VIIa from human plasma (Homo sapiens, UniProt P08709); assay: Protease counter-screening: Factor VIIa; assay type: biochemical
T1 construct: incubated with 25 nM Factor VIIa from; from tissue; host or cells: human plasma
Experimental: (§1) Appendix 7. Protease Counter -Screening
(§2) Protease counter-screeni ng was performed using the methods described below. Initial screening was conducted in duplicate using a single test substance concentration of 10 µ M .
(§3) Additional assays were conducted in replicate for selected pairin gs of test s ubstance and enz yme in order to enable the determination of IC50 values using conventional procedures.
(§4) Determination of K i was made using the Batch K i program (Biokin Ltd, Pullman, WA) to derive values from the Morrison equation: […]
(§5) Where [E ] is the active enz yme concentration, Kiapp is the apparent inhibition const ant, v 0 is the control velocit y in the absence of inhibitors, vb is the background velocity, v is the initial reaction velocit y in the presence of inhibitor, and I is the inhibitor concentration.Thence:
(§6) Where [S ] is the substrate concentration and KM is the Michealis constant. […]
Test compound or vehicle was pre- incubated with 600
Factor VIIa: Test compound or vehicle was pre- incubated with 25 nM Factor VIIa from human plasma in modified 50 mM Tris-HCl buffer pH 7.6 for 15 min at 25 °C. The reaction was initiated by addition of 1 µM N-CH3-SO2-D-FGR-pNA for another 120 min incubation period.
The amount of pNA formed was read spectrophotometricall y at 405 nm. […]

[3] = target: T2, Cathepsin C from bovine spleen (Bos taurus, UniProt Q3ZCJ8); assay: Protease counter-screening: Cathepsin C; assay type: biochemical
T2 construct: Cathepsin C from bovine spleen was used as the source of; from tissue; host or cells: bovine spleen
Experimental: as §1, §2, §3, §4, §5, §6
by addition of 50 µM Ac-DEVD-AMC for another 60 min incubation period. The amount of AMC formed was determined fluorimetricall y (excitation 360 nm/emission 465 nm). […]
by addition of 25 µM Ac-LEH D-A FC for another 60 min incubation period. The amount of amino-4- trifluorometh ylcoumarin (AFC) formed determined fluorimetrically (400nm/ 510nm).
Cathepsin C: Cathepsin C from bovine spleen was used as the source of enz yme. […] T he amount of AMC product formed was read spectrofluorimetrically

T2 sequence (Q3ZCJ8 25-463): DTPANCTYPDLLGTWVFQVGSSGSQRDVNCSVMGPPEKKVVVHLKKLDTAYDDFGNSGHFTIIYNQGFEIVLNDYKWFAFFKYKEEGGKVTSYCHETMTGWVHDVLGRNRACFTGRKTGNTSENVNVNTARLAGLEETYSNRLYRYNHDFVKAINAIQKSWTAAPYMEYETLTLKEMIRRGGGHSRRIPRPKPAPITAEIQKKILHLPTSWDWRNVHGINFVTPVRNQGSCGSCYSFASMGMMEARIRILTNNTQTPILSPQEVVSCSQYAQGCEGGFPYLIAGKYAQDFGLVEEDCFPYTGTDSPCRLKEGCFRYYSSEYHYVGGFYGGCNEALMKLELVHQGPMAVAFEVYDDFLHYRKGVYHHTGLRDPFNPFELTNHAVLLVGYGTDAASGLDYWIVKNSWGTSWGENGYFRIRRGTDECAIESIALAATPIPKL
T1 sequence (P08709 213-466 limits assumed): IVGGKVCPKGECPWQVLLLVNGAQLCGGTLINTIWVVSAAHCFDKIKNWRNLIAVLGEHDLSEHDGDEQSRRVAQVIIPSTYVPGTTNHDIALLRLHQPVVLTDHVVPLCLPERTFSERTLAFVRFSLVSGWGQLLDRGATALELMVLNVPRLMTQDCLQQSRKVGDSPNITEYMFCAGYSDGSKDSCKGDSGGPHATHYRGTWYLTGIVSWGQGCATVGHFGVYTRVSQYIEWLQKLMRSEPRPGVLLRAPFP
T1 sequence (P08709 61-212 limits assumed): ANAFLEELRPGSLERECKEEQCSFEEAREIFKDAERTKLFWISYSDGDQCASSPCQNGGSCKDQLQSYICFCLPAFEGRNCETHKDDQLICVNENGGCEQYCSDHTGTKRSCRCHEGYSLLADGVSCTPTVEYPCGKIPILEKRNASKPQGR

Question: Which results are given for `CC(C)[C@H](NC(=O)[C@H](C)NC(=O)[C@@H](NC(=O)c1ccccc1)C(C)(C)C)C(=O)C(=O)NCc1ccccc1` [Compound 38, N-{(S)-1-[(S)-1-((S)-1-Benzylaminooxalyl-2-methyl-propylcarbamoyl)-ethylcarbamoyl]-2,2-dimethyl-propyl}-benzamide]?
Answer: logD at 1.5 h [1]: 3.2; inhibition at 10 µM [2]: 1%; inhibition at 10 µM [3]: 0%

— paper PMC4257840 (Journal of Medicinal Chemistry, 2014)
